Test results: PubChem BioAssay AID1259411 (Chemical Carcinogenesis Research Information System (CCRIS), 2018)
Active and inactive are the calls of the source. The rule behind the calls is not given here.

System: rodent carcinogenicity bioassays, tumor incidence
Assay: CCRIS carcinogenicity studies
Summary of the method: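 NCI-built, expert-reviewed records of carcinogenicity and related test outcomes (mutagenicity, tumor promotion/inhibition) compiled from published and report sources, historical span 1985-2011, not updated.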

CCC1=C(C)CN(C(=O)NCCc2ccc(S(=O)(=O)NC(=O)NC3CCC(C)CC3)cc2)C1=O (centres undefined)
carcinogen call (Species: DOG, Strain/Sex: BEAGLE/FEMALE, Route: ORAL, Dose: 0, 0.8, 16, 320 MG/KG BW IN GELATIN CAPSULE 1/D 7 D/WK FOR 12 MO (STUDY DURATION: 15 MO), Dose: 0, 0.8, 16, 320 MG/KG BW IN GELATIN CAPSULE 1/D 7 D/WK FOR 12 MO (STUDY DURATION: 15 MO)): inactive; negative
carcinogen call (Species: DOG, Strain/Sex: BEAGLE/MALE, Route: ORAL, Dose: 0, 0.8, 16, 320 MG/KG BW IN GELATIN CAPSULE 1/D 7 D/WK FOR 12 MO (STUDY DURATION: 13 MO), Dose: 0, 0.8, 16, 320 MG/KG BW IN GELATIN CAPSULE 1/D 7 D/WK FOR 12 MO (STUDY DURATION: 13 MO)): inactive; negative
carcinogen call (Species: RAT, Strain/Sex: WISTAR/FEMALE, Route: ORAL, Dose: 0, 20, 1000, 50000 PPM IN DIET FOR 12 MO (STUDY DURATION: 13 MO), Dose: 0, 20, 1000, 50000 PPM IN DIET FOR 12 MO (STUDY DURATION: 13 MO)): inactive; negative
carcinogen call (Species: RAT, Strain/Sex: WISTAR/MALE, Route: ORAL, Dose: 0, 20, 1000, 50000 PPM IN DIET FOR 12 MO (STUDY DURATION: 13 MO), Dose: 0, 20, 1000, 50000 PPM IN DIET FOR 12 MO (STUDY DURATION: 13 MO)): inactive; negative

OC1c2cccc3c2[C@]2(O[C@H]2C1O)c1ccccc1-3 (some centres undefined)
carcinogen call (Species: MOUSE, Strain/Sex: ICR/FEMALE, Route: INTRAPERITONEAL, Dose: 0, 500 NMOL (TOTAL DOSE) ADMINISTERED IN DOSES OF 1/7, 2/7, AND 4/7 ON DAYS 1, 7, AND 15 OF LIFE, RESPECTIVELY (STUDY DU, Tumor Site: Type of Lesion: LUNG: TUMOR): active; positive
carcinogen call (Species: MOUSE, Strain/Sex: ICR/MALE, Route: INTRAPERITONEAL, Dose: 0, 500 NMOL (TOTAL DOSE) ADMINISTERED IN DOSES OF 1/7, 2/7, AND 4/7 ON DAYS 1, 7 AND 15 OF LIFE , RESPECTIVELY (STUDY DU, Tumor Site: Type of Lesion: LUNG: TUMOR, LIVER: TUMOR): active; positive
carcinogen call (Species: RAT, Strain/Sex: STRAIN-CD/FEMALE, Route: INJECTION, Dose: 0, 2, 10 UMOL IN 0.1 ML DMSO INJECTED INTO MAMMARY TISSUE UNDER EACH OF THE 3 LEFT THORACIC NIPPLES FOLLOWED BY SIMILAR, Dose: 0, 2, 10 UMOL IN 0.1 ML DMSO INJECTED INTO MAMMARY TISSUE UNDER EACH OF THE 3 LEFT THORACIC NIPPLES FOLLOWED BY SIMILAR, Tumor Site: Type of Lesion: MAMMARY GLAND: TUMOR): active; positive

CN(C)c1ccc(N=NS(=O)(=O)O)cc1
carcinogen call (Species: MOUSE, Strain/Sex: B6C3F1/FEMALE, Route: ORAL, Dose: 0, 0.05, 0.10% OF DIET, TWA, Dose: 0, 0.05, 0.10% OF DIET, TWA): inactive; negative
carcinogen call (Species: MOUSE, Strain/Sex: B6C3F1/MALE, Route: ORAL, Dose: 0, 0.10, 0.19% OF DIET, TWA, Dose: 0, 0.10, 0.19% OF DIET, TWA): inactive; negative
carcinogen call (Species: RAT, Strain/Sex: F344/FEMALE, Route: ORAL, Dose: 0, 0.05, 0.10% OF DIET, TWA, Dose: 0, 0.05, 0.10% OF DIET, TWA): inactive; negative
carcinogen call (Species: RAT, Strain/Sex: F344/MALE, Route: ORAL, Dose: 0, 0.05, 0.10% OF DIET, TWA, Dose: 0, 0.05, 0.10% OF DIET, TWA): inactive; negative

C1=CC2OC2C=C1 (centres undefined)
carcinogen call (Species: MOUSE, Strain/Sex: SWISS/FEMALE, Route: INTRAPERITONEAL, Dose: 0, 7.4, 18.6 UMOL ADMINISTERED AS 3 UNEQUAL DOSES (1/7, 2/7, AND 4/7 OF THE TOTAL DOSE) OVER A 2-WK PERIOD (STUDY DURATI, Dose: 0, 7.4, 18.6 UMOL ADMINISTERED AS 3 UNEQUAL DOSES (1/7, 2/7, AND 4/7 OF THE TOTAL DOSE) OVER A 2-WK PERIOD (STUDY DURATI): inactive; negative
carcinogen call (Species: MOUSE, Strain/Sex: SWISS/MALE, Route: INTRAPERITONEAL, Dose: 0, 7.4, 18.6 UMOL ADMINISTERED AS 3 UNEQUAL DOSES (1/7, 2/7, AND 4/7 OF THE TOTAL DOSE) OVER A 2-WK PERIOD (STUDY DURATI, Dose: 0, 7.4, 18.6 UMOL ADMINISTERED AS 3 UNEQUAL DOSES (1/7, 2/7, AND 4/7 OF THE TOTAL DOSE) OVER A 2-WK PERIOD (STUDY DURATI): inactive; negative

C=CC(=O)OC
carcinogen call (Species: RAT, Strain/Sex: SPRAGUE-DAWLEY/FEMALE, Route: INHALATION, Dose: 0, 15, 45, 135 PPM 6 HR/D 5 D/WK FOR 24 MO (STUDY DURATION: 130 WK), Dose: 0, 15, 45, 135 PPM 6 HR/D 5 D/WK FOR 24 MO (STUDY DURATION: 130 WK)): inactive; negative
carcinogen call (Species: RAT, Strain/Sex: SPRAGUE-DAWLEY/MALE, Route: INHALATION, Dose: 0, 15, 45, 135 PPM 6 HR/D 5 D/WK FOR 24 MO (STUDY DURATION: 130 WK), Dose: 0, 15, 45, 135 PPM 6 HR/D 5 D/WK FOR 24 MO (STUDY DURATION: 130 WK)): inactive; negative

CC(N)=S
carcinogen call (Species: MOUSE, Strain/Sex: SWISS, Route: ORAL, Dose: 0.03% IN DIET, Tumor Site: Type of Lesion: LIVER: CARCINOMA): active; positive
carcinogen call (Species: RAT, Strain/Sex: WISTAR/MALE,FEMALE, Route: ORAL, Dose: 0.032% IN DIET, Tumor Site: Type of Lesion: LIVER: BILE DUCT TUMOR, NOS): active; positive

CCC[CH2][Sn]([CH2]CCC)([O]C(C)=O)[O]C(C)=O
carcinogen call (Species: MOUSE, Strain/Sex: B6C3F1/FEMALE, Route: ORAL, Dose: 0, 76, 152 PPM IN DIET, TWA, Dose: 0, 76, 152 PPM IN DIET, TWA): inactive; negative
carcinogen call (Species: MOUSE, Strain/Sex: B6C3F1/MALE, Route: ORAL, Dose: 0, 76, 152 PPM IN DIET, TWA, Dose: 0, 76, 152 PPM IN DIET, TWA): inactive; negative
carcinogen call (Species: RAT, Strain/Sex: F344/MALE, Route: ORAL, Dose: 0, 66.5, 133 PPM IN DIET, TWA, Dose: 0, 66.5, 133 PPM IN DIET, TWA): inactive; negative

c1ccc2c(c1)cc1ccc3c4ccccc4cc4ccc2c1c43
carcinogen call (Species: MOUSE, Route: DERMAL, Tumor Site: Type of Lesion: INTEGUMENTARY SYSTEM (SKIN)): active; positive
carcinogen call (Species: MOUSE, Route: SUBCUTANEOUS, Tumor Site: Type of Lesion: INJECTION SITE): active; positive

O=CC(=O)C[C@H](O)[C@H](O)CO
carcinogen call (Species: MOUSE, Strain/Sex: CD-1/FEMALE, Route: DERMAL, Dose: 0, 20 UMOL/0.1 ML DMSO 2/WK FOR 5 WK FOLLOWED 1 WK LATER BY 0.1 ML ACETONE 2/WK FOR 47 WK (STUDY DURATION: 52 WK)): inactive; negative

COC(=O)C(c1ccccc1)C1CCCCN1 (centres undefined)
carcinogen call (Species: MOUSE, Strain/Sex: B6C3F1/FEMALE, Route: ORAL, Dose: 0, 50, 250, 500 PPM IN DIET FOR 2 YR (STUDY DURATION: 2 YR), Dose: 0, 50, 250, 500 PPM IN DIET FOR 2 YR (STUDY DURATION: 2 YR), Tumor Site: Type of Lesion: LIVER: HEPATOCELLULAR ADENOMA): active; positive
carcinogen call (Species: MOUSE, Strain/Sex: B6C3F1/MALE, Route: ORAL, Dose: 0, 50, 250, 500 PPM IN DIET FOR 2 YR (STUDY DURATION: 2 YR), Dose: 0, 50, 250, 500 PPM IN DIET FOR 2 YR (STUDY DURATION: 2 YR), Tumor Site: Type of Lesion: LIVER: HEPATOCELLULAR ADENOMA, HEPATOBLASTOMA): active; positive
carcinogen call (Species: RAT, Strain/Sex: F344/FEMALE, Route: ORAL, Dose: 0, 100, 500, 1000 PPM IN DIET FOR 2 YR (STUDY DURATION: 2 YR), Dose: 0, 100, 500, 1000 PPM IN DIET FOR 2 YR (STUDY DURATION: 2 YR)): inactive; negative
carcinogen call (Species: RAT, Strain/Sex: F344/MALE, Route: ORAL, Dose: 0, 100, 500, 1000 PPM IN DIET FOR 2 YR (STUDY DURATION: 2 YR), Dose: 0, 100, 500, 1000 PPM IN DIET FOR 2 YR (STUDY DURATION: 2 YR)): inactive; negative

COP(=S)(OC)Oc1ccc(SC)c(C)c1
carcinogen call (Species: MOUSE, Strain/Sex: B6C3F1/FEMALE, Route: ORAL, Dose: 0, 10, 20 PPM IN DIET, Dose: 0, 10, 20 PPM IN DIET): inactive; negative
carcinogen call (Species: Mouse, Strain/Sex: B6C3F1/Female (60/group), Route: Oral, Dose: 0, 0.1, 1, 5, 25 ppm in diet for up to 2 yr, study duration 2 yr, Dose: 0, 0.1, 1, 5, 25 ppm in diet for up to 2 yr, study duration 2 yr): inactive; negative
carcinogen call (Species: Mouse, Strain/Sex: B6C3F1/Male (60/group), Route: Oral, Dose: 0, 0.1, 1, 5, 25 ppm in diet for up to 2 yr, study duration 2 yr, Dose: 0, 0.1, 1, 5, 25 ppm in diet for up to 2 yr, study duration 2 yr): inactive; negative
carcinogen call (Species: RAT, Strain/Sex: F344/MALE, Route: ORAL, Dose: 0, 10, 20 PPM IN DIET, Dose: 0, 10, 20 PPM IN DIET): inactive; negative
carcinogen call (Species: Rat, Strain/Sex: Fischer 344/Female (50/Group), Route: Oral, Dose: 0 (corn oil), 5, 20, 100 ppm in diet for 2 yr, study duration 2 yr, Dose: 0 (corn oil), 5, 20, 100 ppm in diet for 2 yr, study duration 2 yr): inactive; negative
carcinogen call (Species: Rat, Strain/Sex: Fischer 344/Male (50/Group), Route: Oral, Dose: 0 (corn oil), 5, 20, 100 ppm in diet for 2 yr, study duration 2 yr, Dose: 0 (corn oil), 5, 20, 100 ppm in diet for 2 yr, study duration 2 yr): inactive; negative

CO[Si](CCC1CCC2OC2C1)(OC)OC (centres undefined)
carcinogen call (Species: MOUSE, Strain/Sex: C3H/MALE, Route: DERMAL, Dose: 0, 25 MG IN ACETONE 3/WK FOR DURATION OF STUDY (STUDY DURATION: LIFETIME), Tumor Site: Type of Lesion: SKIN: CARCINOMA): active; positive
